In US20230041563A1, “N-(1,3,4-OXADIAZOL-2-YL)ARYLCARBOXAMIDES OR SALTS THEREOF, PREPARATION METHODS, HERBICIDAL COMPOSITIONS AND USES THEREOF” (priority 2018, published 2023):

Legend:
[1] = system: rice and Echinochloa crusgali; experiment: Herbicide selection index between rice and Echinochloa crusgali; format: in vivo; conditions: average dose causing 10% phytotoxicity to rice divided by average dose causing 90% control efficiency to Echinochloa crusgali
[2] = system: Digitaria sanguinalis; experiment: Weeding effect in post-emergence stage (greenhouse pot spray); format: in vivo; conditions: for Digitaria sanguinahs (activity level): Table 3, dose 60 g a.i./ha
Outline: (§1)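 Greenhouse pot plants at the 2–3 leaf stage (2 weeks after sowing) were sprayed with compound in acetone with Tween 80 and methyl oleate EC synergist (1.5 L/ha) at 500, 250, 125, 60 or 15 g a.i./ha. Fresh-weight growth control was scored 3 weeks later, averaged over three replicates.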

[3] = system: Echinochloa crusgalli; experiment: as above; format: in vivo
Outline: as §1

[4] = system: Abutilon theophrasti; experiment: as above; format: in vivo; conditions: for Abutilon theophrasti (activity level): Table 3, dose 60 g a.i./ha
Outline: as §1

[5] = system: Stellaria media; experiment: as above; format: in vivo
Outline: as §1

[6] = system: Amaranthus retroflexus; experiment: as above; format: in vivo
Outline: as §1

[7] = system: Japonica rice (Huaidao No. 5); experiment: Safety test of control experiments on rice; format: in vivo
From the text: (§2) The activity level criteria for plant damage (i.e., growth control rate) are as follows: Comparative Experiments: [table]

[8] = system: Indica rice (Huanghuazhan); experiment: Safety test of control experiments on rice; format: in vivo
From the text: as §2

[9] = system: Echinochloa crusgali; experiment: Transplanted rice safety evaluation and weed control effect evaluation in rice field; format: in vivo; conditions: Table 7, dose 125 g a.i./ha, 14 days after treatment
From the text: (§3) Transplanted rice safety evaluation and weed control effect evaluation in rice field:
(§4) Rice field soil was loaded into a 1/1,000,000 ha pot. The seeds of echinochloa crusgali, scirpus juncoides, Bidens tripartita, Sagittaria trifolia, Monochoria vaginalis and Leptochloa chinensis were sowed and gently covered with soil, then left to stand still in greenhouse in the state of 0.5-1 cm of water storage. The tuber of Sagittaria trifolia was planted in the next day or 2 days later. It was kept at 3-4 cm of water storage thereafter. The weeds were treated by dripping the WP or SC water diluents prepared according to the common preparation method of the compounds of the present invention with pipette homogeneously to achieve specified effective amount when echinochloa crusgali, scirpus juncoides, Bidens tripartita, Monochoria vaginalis and Leptochloa chinensis reached 0.5 leaf stage and Sagittaria trifolia reached the time point of primary leaf stage.
(§5) The fertility condition of echinochloa crusgali, scirpus juncoides, Bidens tripartita, Leptochloa chinensis, Sagittaria trifolia and Monochoria vaginalis 14 days after the treatment of the compound of the invention and the fertility condition of rice 21 days after the treatment of the compound of the invention respectively with the naked eye. Evaluate the weed control effect with 0-5 activity standard level. Many compounds show excellent activity and selectivity.

[10] = system: Scirpus juncoides; experiment: as above; format: in vivo; conditions: Table 7, dose 125 g a.i./ha, 14 days after treatment
From the text: as §3, §4, §5

[11] = system: Monochoria vaginalis; experiment: as above; format: in vivo; conditions: Table 7, dose 125 g a.i./ha, 14 days after treatment
From the text: as §3, §4, §5

[12] = system: Rice; experiment: as above; format: in vivo, rice (japonica rice/Indica rice); conditions: Table 7, dose 125 g a.i./ha, 21 days after treatment
Procedure: as §3
In addition, the rice field soil that loaded into the 1/1,000,000 ha pot was leveled to keep water storage at 3-4 cm depth. The 3 leaf stage rice (japonica rice/Indica rice) was transplanted at 3 cm of transplanting depth the next day. The compound of the present invention was treated by the same way after 5 days of transplantation.
as §5

[13] = system: Setaria viridis; experiment: Weeding effect in post-emergence stage (greenhouse pot spray); format: in vivo; conditions: Table 3, dose 60 g a.i./ha
Outline: as §1

SMILES	Selection index between rice and Echinochloa crusgali [1]	Digitaria sanguinalis (activity level) ([2]; Table 2, dose 500 g a.i./ha)	Echinochloa crusgah (activity level) ([3]; Table 2, dose 500 g a.i./ha)	Abutilion theophrasti (activity level) ([4]; Table 2, dose 500 g a.i./ha)	Stellaria media (activity level) ([5]; Table 2, dose 500 g a.i./ha)	Amaranthus retroflexus (activity level) ([6]; Table 2, dose 500 g a.i./ha)	Japonica rice (Huaidao No. 5) (plant damage level) ([7]; Dose 250 g a.i./ha)	Indica rice (Huanghuazhan) (plant damage level) ([8]; Dose 250 g a.i./ha)	Digitaria sanguinalis (activity level) ([2]; Table 2, dose 250 g a.i./ha)	Echinochloa crusgah (activity level) ([3]; Table 2, dose 250 g a.i./ha)	Abutilion theophrasti (activity level) ([4]; Table 2, dose 250 g a.i./ha)	Stellaria media (activity level) ([5]; Table 2, dose 250 g a.i./ha)	Amaranthus retroflexus (activity level) ([6]; Table 2, dose 250 g a.i./ha)	also measured
Cc1nnc(NC(=O)c2ccc(C(F)(F)F)c([S+]([O-])C3COC3)c2F)o1 (stereo not shown) [Compound 1-82]	>5	5 (Level 5: growth control rate is above 85%)	5 (Level 5: growth control rate is above 85%)	5 (Level 5: growth control rate is above 85%)	5 (Level 5: growth control rate is above 85%)	5 (Level 5: growth control rate is above 85%)	0 (Level 0: growth control rate is less than 5%)	0 (Level 0: growth control rate is less than 5%)						
CCCS(=O)(=O)c1c(C(F)(F)F)ccc(C(=O)Nc2nnc(C)o2)c1F [Compound 1-9]	>5						0 (Level 0: growth control rate is less than 5%)	0 (Level 0: growth control rate is less than 5%)	5 (Level 5: growth control rate is above 85%)	5 (Level 5: growth control rate is above 85%)	5 (Level 5: growth control rate is above 85%)	5 (Level 5: growth control rate is above 85%)	5 (Level 5: growth control rate is above 85%)	Digitaria sanguinalis (activity level) ([2]; Table 2, dose 125 g a.i./ha): 5 (Level 5: growth control rate is above 85%); Echinochloa crusgah (activity level) ([3]; Table 2, dose 125 g a.i./ha): 5 (Level 5: growth control rate is above 85%); Abutilion theophrasti (activity level) ([4]; Table 2, dose 125 g a.i./ha): 5 (Level 5: growth control rate is above 85%); Stellaria media (activity level) ([5]; Table 2, dose 125 g a.i./ha): 5 (Level 5: growth control rate is above 85%); Amaranthus retroflexus (activity level) ([6]; Table 2, dose 125 g a.i./ha): 5 (Level 5: growth control rate is above 85%)
Cc1nnc(NC(=O)c2ccc(C(F)(F)F)c(SC3CC3)c2F)o1 [Compound 1-76]														Echinochloa crusgali (activity level) [9]: 5 (Level 5: growth control rate is above 85%); Scirpus juncoides (activity level) [10]: 5 (Level 5: growth control rate is above 85%); Monochoria vaginalis (activity level) [11]: 5 (Level 5: growth control rate is above 85%); Rice (safety level) [12]: 0 (Level 0: growth control rate is less than 5%)
CCS(=O)(=O)c1c(C(F)(F)F)ccc(C(=O)Nc2nnc(C)o2)c1Cl [Control Compound D, reference compound]	1													Japonica rice (Huaidao No. 5) (plant damage level) ([7]; Dose 60 g a.i./ha): 5 (Level 5: growth control rate is above 85%); Indica rice (Huanghuazhan) (plant damage level) ([8]; Dose 60 g a.i./ha): 5 (Level 5: growth control rate is above 85%)
Cc1nnc(NC(=O)c2ccc(C(F)(F)F)c(S(C)(=O)=O)c2C)o1 [Control Compound B, reference compound]	0.8						3 (Level 3: growth control rate is greater than or equal to 40% and less than 60%)	4 (Level 4: growth control rate is greater than or equal to 60% and less than 85%)						Japonica rice (Huaidao No. 5) (plant damage level) ([7]; Dose 125 g a.i./ha): 3 (Level 3: growth control rate is greater than or equal to 40% and less than 60%); Indica rice (Huanghuazhan) (plant damage level) ([8]; Dose 125 g a.i./ha): 3 (Level 3: growth control rate is greater than or equal to 40% and less than 60%)
Cc1nnc(NC(=O)c2ccc(C(F)(F)F)c([S+]([O-])CC(C)C)c2F)o1 (racemic) [Compound 1-20]	>5						0 (Level 0: growth control rate is less than 5%)	0 (Level 0: growth control rate is less than 5%)	5 (Level 5: growth control rate is above 85%)	5 (Level 5: growth control rate is above 85%)	5 (Level 5: growth control rate is above 85%)	5 (Level 5: growth control rate is above 85%)	5 (Level 5: growth control rate is above 85%)	Digitaria sanguinahs (activity level) [2]: 5 (Level 5: growth control rate is above 85%); Setaria viridis (activity level) [13]: 5 (Level 5: growth control rate is above 85%); Abutilon theophrasti (activity level) [4]: 5 (Level 5: growth control rate is above 85%)
CCCCSc1c(C(F)(F)F)ccc(C(=O)Nc2nnc(C)o2)c1F [Compound 1-13]	>5						0 (Level 0: growth control rate is less than 5%)	0 (Level 0: growth control rate is less than 5%)	5 (Level 5: growth control rate is above 85%)	5 (Level 5: growth control rate is above 85%)	5 (Level 5: growth control rate is above 85%)	5 (Level 5: growth control rate is above 85%)	5 (Level 5: growth control rate is above 85%)	
Cc1nnc(NC(=O)c2ccc(C(F)(F)F)c([S+]([O-])CCC(F)(F)F)c2F)o1 (racemic) [Compound 1-52]	>5	5 (Level 5: growth control rate is above 85%)	5 (Level 5: growth control rate is above 85%)	5 (Level 5: growth control rate is above 85%)	5 (Level 5: growth control rate is above 85%)	5 (Level 5: growth control rate is above 85%)	0 (Level 0: growth control rate is less than 5%)	0 (Level 0: growth control rate is less than 5%)						Digitaria sanguinahs (activity level) [2]: 5 (Level 5: growth control rate is above 85%); Setaria viridis (activity level) [13]: 5 (Level 5: growth control rate is above 85%); Abutilon theophrasti (activity level) [4]: 5 (Level 5: growth control rate is above 85%)
CCCSc1c(C(F)(F)F)ccc(C(=O)Nc2nnc(C)o2)c1F [Compound 1-7]	>5	5 (Level 5: growth control rate is above 85%)	5 (Level 5: growth control rate is above 85%)	5 (Level 5: growth control rate is above 85%)	5 (Level 5: growth control rate is above 85%)	5 (Level 5: growth control rate is above 85%)	0 (Level 0: growth control rate is less than 5%)	0 (Level 0: growth control rate is less than 5%)	5 (Level 5: growth control rate is above 85%)	5 (Level 5: growth control rate is above 85%)	5 (Level 5: growth control rate is above 85%)	5 (Level 5: growth control rate is above 85%)	5 (Level 5: growth control rate is above 85%)	
Cc1nnc(NC(=O)c2ccc(C(F)(F)F)c([S+]([O-])C(C)C)c2F)o1 (racemic) [Compound 1-11]									5 (Level 5: growth control rate is above 85%)	5 (Level 5: growth control rate is above 85%)	5 (Level 5: growth control rate is above 85%)	5 (Level 5: growth control rate is above 85%)	5 (Level 5: growth control rate is above 85%)	Echinochloa crusgali (activity level) [9]: 5 (Level 5: growth control rate is above 85%); Scirpus juncoides (activity level) [10]: 5 (Level 5: growth control rate is above 85%); Monochoria vaginalis (activity level) [11]: 5 (Level 5: growth control rate is above 85%); Rice (safety level) [12]: 0 (Level 0: growth control rate is less than 5%)
